# Source: patent US10966426B2, “Herbicidal compositions comprising phenylpyrimidines” (BASF SE, priority 2016, dated 2021)
# Values joined by “and” are separate entries in the source; they are usually repeats but may differ in a detail not shown here. Equal entries are not always repeated.
# Columns and labels:
# Assay type in all cases: in vivo
# Echinocloa crus-galli = test: greenhouse pre-emergence treatment, ECHCG; settings: 20 DAT
# Summary of the method: (§1)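 Pre-emergence spray of compounds, alone or as combinations formulated as 10% emulsion concentrate in water, directly after sowing in loamy sand (~3.0% humus); pots hooded until rooting, kept at 10-25° C or 20-35° C per species for 2 to 4 weeks. Damage scored 0-100 (100 = no emergence/complete destruction); Colby expected value E=X+Y−(X·Y/100).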
# Polygonum aviculare = test: greenhouse post-emergence treatment, POLAV; settings: POLAV; for % activity, solo application: Table X4
# Summary of the method: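 Greenhouse; post-emergence spray at 3–15 cm; aqueous EC formulation; 2–4 weeks; 0–100 visual score.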
# Bromus sterilis = test: greenhouse pre-emergence treatment, BROST; settings: BROST
# Summary of the method: as §1
# Helianthus annuus = test: greenhouse pre-emergence treatment, HELAN; settings: HELAN
# Summary of the method: as §1
# BRAPL = test: greenhouse pre-emergence treatment, BRAPL; settings: Table X9, 21 DAT, solo Ex. 5 125 gai/ha
# Brachiaria decumbens = test: greenhouse pre-emergence treatment, BRADC; settings: BRADC
# Summary of the method: as §1
# Apera spica-venti = test: greenhouse post-emergence treatment, APESV; settings: APESV, 20 DAT
# Summary of the method: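 Post-emergence greenhouse spray on 3–15 cm plants, sown direct or transplanted a few days before treatment. Scored visually on a 0–100 scale after 2 to 4 weeks; expected additive effect computed by Colby: E=X+Y−(X·Y/100).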
# Lolium perenne = test: greenhouse post-emergence treatment, LOLPE; settings: 20 DAT, 2nd series of rows
# Method: The culture containers used were plastic pots containing loamy sand with approximately 3.0% of humus as substrate. The seeds of the test plants were sown separately for each species.
# To this end, the test plants were either sown directly, and grown in the same containers, or they were first grown separately as seedlings and transplanted into the test containers a few days prior to treatment.
# Depending on the species, the plants were kept at 10-25° C. and 20-35° C., respectively.
# The test period extended over 2 to 4 weeks. During this time, the plants were tended and their response to the individual treatments was evaluated.
# Evaluation was carried out using a scale from 0 to 100. 100 means no emergence of the plants, or complete destruction of at least the above-ground parts, and 0 means no damage or normal course of growth. A good herbicidal activity is given at values of at least 70, and very good herbicidal activity is given at values of at least 85.
# In the examples, the solvent used was water.
# In the examples below, using the method of S. R. Colby (1967) “Calculating synergistic and antagonistic responses of herbicide combinations”, Weeds 15, p. […] E=X+Y−(X·Y/100) where X=effect in percent using herbicide A at an application rate a; • Y=effect in percent using herbicide B at application rate b; • E=expected effect (in %) of herbicide A+herbicide B at application rates a+b.
# [1] = 20 DAT, solo Ex. 5 31.25 gai/ha
smiles,measurement,setting,value
O=C(O)c1nc(C2CC2)ncc1-c1ccccc1Cl [Ex. 5],% activity,"Echinocloa crus-galli; Ex. 5 solo, 62.5 gai/ha",85%
same,% activity,"Echinocloa crus-galli; solo, 31.25 gai/ha",95%
same,% activity,"Echinocloa crus-galli; solo, 125 gai/ha",95%
same,"% activity, solo application","Polygonum aviculare; 125 gai/ha, 20 DAT",95%
same,"% activity, solo application","Polygonum aviculare; 250 gai/ha, 20 DAT",95%
same,% activity,"Polygonum aviculare; Ex. 5 solo, 62.5 gai/ha, 21 DAT",90%
same,% activity,"Polygonum aviculare; 20 DAT, solo Ex. 5 62.5 gai/ha",90%
same,% activity,"Polygonum aviculare; 20 DAT, solo Ex. 5 125 gai/ha",90%
same,% activity,"Polygonum aviculare; 20 DAT, solo Ex. 5 125 gai/ha (Table X66)",90%
same,"% activity, solo application","Bromus sterilis; 62.5 gai/ha, 20 DAT, Table X1",65%
same,"% activity, solo application","Bromus sterilis; 125 gai/ha, 20 DAT, Table X1",80%
same,"% activity, solo application","Bromus sterilis; 125 gai/ha, 20 DAT, Table X6",65%
same,% activity,Bromus sterilis; [1],5%
same,% activity,"Bromus sterilis; solo, 62.5 gai/ha, 20 DAT",45%
same,% activity,"Bromus sterilis; solo, 125 gai/ha, 21 DAT",75%
same,"% activity, solo application","Helianthus annuus; 31.25 gai/ha, 20 DAT, Table X6",0%
same,"% activity, solo application","Helianthus annuus; 62.5 gai/ha, 20 DAT, Table X1",35%
same,"% activity, solo application","Helianthus annuus; 125 gai/ha, 20 DAT, Table X2",40%
same,"% activity, solo application","Helianthus annuus; 125 gai/ha, 20 DAT, Table X6",40%
same,% activity,"Helianthus annuus; Ex. 5 solo, 125 gai/ha, 20 DAT",60%
same,% activity,Helianthus annuus; [1],0%
same,% activity,"Helianthus annuus; 20 DAT, solo Ex. 5 62.5 gai/ha",0%
same,% activity,"Helianthus annuus; solo, 31.25 gai/ha, 20 DAT",0%
same,% activity,"Helianthus annuus; solo, 62.5 gai/ha, 20 DAT",0%
same,% activity,"Helianthus annuus; solo, 125 gai/ha, 20 DAT",0%
same,% activity,"Helianthus annuus; solo, 125 gai/ha, 21 DAT",50%
same,% activity,"Helianthus annuus; solo, 250 gai/ha, 21 DAT",80%
same,% activity,BRAPL,90%
same,"% activity, solo application","Brachiaria decumbens; 62.5 gai/ha, 20 DAT, Table X2",80%
same,"% activity, solo application","Brachiaria decumbens; 125 gai/ha, 20 DAT, Table X6",95%
same,% activity,Brachiaria decumbens; [1],20%
same,% activity,"Brachiaria decumbens; 20 DAT, solo Ex. 5 62.5 gai/ha",60%
same,% activity,"Brachiaria decumbens; 20 DAT, solo Ex. 5 125 gai/ha",70%
same,% activity,"Brachiaria decumbens; Ex. 5 solo, 62.5 gai/ha, 20 DAT",60%
same,% activity,"Brachiaria decumbens; Ex. 5 solo, 125 gai/ha, 20 DAT",70%
same,% activity,"Brachiaria decumbens; Table X13, 20 DAT, solo Ex. 5 31.25 gai/ha",85%
same,% activity,"Brachiaria decumbens; solo, 31.25 gai/ha, 20 DAT",55%
same,% activity,"Brachiaria decumbens; solo, 62.5 gai/ha, 20 DAT",85%
same,% activity,Apera spica-venti; solo Ex. 5 62.5 gai/ha,75%
same,% activity,"Apera spica-venti; solo, 62.5 gai/ha",70%
same,% activity,"Apera spica-venti; solo, 125 gai/ha",80%
same,% activity,"Apera spica-venti; solo, 250 gai/ha",85% and 90%
same,% activity,Lolium perenne; solo Ex. 5 15 gai/ha,85%
same,% activity,Lolium perenne; solo Ex. 5 62.5 gai/ha,80%
same,% activity,Lolium perenne; solo Ex. 5 250 gai/ha,85%
same,% activity,Lolium perenne; solo Ex. 5 500 gai/ha,85%
